In ChEMBL document CHEMBL1201862, “PubChem BioAssay data set” (2004):
The source made the active and inactive calls.

How the values were obtained:
[1] = target: T1, Short transient receptor potential channel 4 (Mus musculus, UniProt Q9QUQ5); assay: block of DAMGO-driven TRPC4 calcium entry – cell-based, HEK293 TRPC4/mu-opioid, Fluo-4 calcium, dose response (AID 434942); type: functional;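 note: potency of inhibitors blocking the TRPC4 calcium response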
T1 sequence (Q9QUQ5 whole entry): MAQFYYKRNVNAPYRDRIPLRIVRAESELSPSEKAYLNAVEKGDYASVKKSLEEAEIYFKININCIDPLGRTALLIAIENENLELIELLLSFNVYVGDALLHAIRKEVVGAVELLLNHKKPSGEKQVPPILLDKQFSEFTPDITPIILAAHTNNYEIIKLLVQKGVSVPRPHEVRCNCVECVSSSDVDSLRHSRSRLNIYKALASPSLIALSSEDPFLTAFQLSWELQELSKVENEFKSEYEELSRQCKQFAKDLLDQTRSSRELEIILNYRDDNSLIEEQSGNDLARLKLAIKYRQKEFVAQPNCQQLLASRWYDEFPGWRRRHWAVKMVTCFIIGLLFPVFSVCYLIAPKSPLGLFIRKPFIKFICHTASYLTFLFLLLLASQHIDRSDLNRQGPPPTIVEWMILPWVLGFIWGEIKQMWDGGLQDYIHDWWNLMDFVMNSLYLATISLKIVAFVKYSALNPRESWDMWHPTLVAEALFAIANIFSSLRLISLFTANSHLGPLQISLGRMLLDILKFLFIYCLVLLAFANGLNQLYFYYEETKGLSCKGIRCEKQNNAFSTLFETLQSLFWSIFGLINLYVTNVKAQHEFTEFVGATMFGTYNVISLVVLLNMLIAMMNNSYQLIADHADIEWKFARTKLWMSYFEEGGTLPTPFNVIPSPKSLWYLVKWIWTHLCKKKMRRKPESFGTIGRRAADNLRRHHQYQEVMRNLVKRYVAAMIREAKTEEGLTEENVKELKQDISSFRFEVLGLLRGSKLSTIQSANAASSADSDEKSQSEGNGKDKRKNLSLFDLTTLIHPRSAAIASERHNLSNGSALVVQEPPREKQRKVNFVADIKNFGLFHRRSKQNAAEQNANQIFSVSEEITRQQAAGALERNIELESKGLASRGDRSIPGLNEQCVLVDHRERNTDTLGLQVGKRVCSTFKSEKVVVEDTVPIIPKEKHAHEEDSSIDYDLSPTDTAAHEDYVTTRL

[2] = target: Delta-type opioid receptor (Homo sapiens, UniProt P41143); assay: Counterscreen for agonists of heterodimerization of the mu 1 (OPRM1) and delta 1 (OPRD1) opioid receptors: Luminescence-based cell-based high throughput dose response assay to identify agonists of OPRD1 homodimerization. [Related pubchem assays (depositor defined):AID504326, AID504355, AID504692, AID504904, AID504905]; type: functional
Mu-type opioid receptor = Mu-type opioid receptor (Homo sapiens, UniProt P35372); assay: Counterscreen for agonists of heterodimerization of the mu 1 (OPRM1) and delta 1 (OPRD1) opioid receptors: Luminescence-based cell-based high throughput dose response assay to identify agonists of OPRM1 homodimerization.; type: functional;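 note: U2OS cells expressing OPRM1 and beta-arrestin as split beta-galactosidase partners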
[3] = target: 5-hydroxytryptamine receptor 5A (Homo sapiens, UniProt P47898); assay: Counterscreen for agonists of OPRM1-OPRD1 heterodimerization: luminescence-based cell-based high throughput dose response assay to identify agonists of 5-hydroxytryptamine (serotonin) 5A receptor (HTR5A). [Related pubchem assays (depositor defined):AID504326, AID504355, AID504692, AID504904, AID504905]; type: functional
Cytochrome P450 2C19 = Cytochrome P450 2C19 (Homo sapiens, UniProt P33261); assay: Cytochrome panel assay with activity outcomes. Panel member name: p450-cyp2c19 Compounds with AC50 equal or less than 10 uM are considered active; type: functional; details: read-out: AC50
Cytochrome P450 2C9 = Cytochrome P450 2C9 (Homo sapiens, UniProt P11712)
Cytochrome P450 2D6 = Cytochrome P450 2D6 (Homo sapiens, UniProt P10635);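 note: CYP2D6 member of a cytochrome P450 panel assay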
[4] = A Cell Based Secondary Assay To Explore Cytotoxicity of Compounds that Sensitize Mycobacterium Tuberculosis to Beta-Lactam Antibiotics.; type: functional
[5] = target: T1, Short transient receptor potential channel 4; assay: calcium entry via TRPC4 opening agents – cell-based, HEK293 TRPC4/mu-opioid, Fluo-4 calcium, dose response (AID 434937); type: functional
[6] = target: T2, Microphthalmia-associated transcription factor (Homo sapiens, UniProt O75030); assay: reducers of TRPM1 reporter luminescence, concentration series – cell-based, SK-MEL-5, cherry-picked, set 3, MITF inhibitor project, dose response (AID 493073); type: functional;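 note: SK-MEL-5 melanoma cells with luciferase driven by the MITF target TRPM1 promoter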
T2 sequence (O75030 whole entry): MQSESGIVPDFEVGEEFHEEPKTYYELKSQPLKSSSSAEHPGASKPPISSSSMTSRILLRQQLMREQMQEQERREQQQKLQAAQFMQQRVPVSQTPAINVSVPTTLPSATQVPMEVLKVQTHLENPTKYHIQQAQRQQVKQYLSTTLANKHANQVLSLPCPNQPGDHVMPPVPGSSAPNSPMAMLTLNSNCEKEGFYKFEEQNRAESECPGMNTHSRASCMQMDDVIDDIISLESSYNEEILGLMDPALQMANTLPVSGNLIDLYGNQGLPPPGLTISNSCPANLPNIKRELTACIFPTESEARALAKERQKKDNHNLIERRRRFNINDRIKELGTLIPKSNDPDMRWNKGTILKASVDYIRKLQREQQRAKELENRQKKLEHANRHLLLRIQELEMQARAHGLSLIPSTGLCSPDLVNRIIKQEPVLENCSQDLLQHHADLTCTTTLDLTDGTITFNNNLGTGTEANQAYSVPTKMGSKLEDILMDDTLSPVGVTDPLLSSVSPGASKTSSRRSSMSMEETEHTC

A-375 = assay: MITF: Counter assay: A375 proliferation Measured in Cell-Based System Using Plate Reader - 2084-03_Inhibitor_Dose_DryPowder_Activity. [Related pubchem assays (depositor defined):AID488944]; type: functional; details: Homo sapiens
Escherichia coli [7] = assay: microbe, parasite or virus in culture
Escherichia coli [8] = assay: microbe, parasite or virus in culture; remark: listed apart in the source
BJ [9] = assay: BJ-TERT fibroblast viability loss – cell-based, RAS-independent, luminescence, dose response (AID 1933); type: functional; details: Homo sapiens
BJ [10] = assay: cells; type: functional, cell-based; details: Homo sapiens
BJ [11] = assay: BJ-TERT-LT-ST fibroblast viability loss – cell-based, RAS-independent, luminescence, dose response (AID 1935); type: functional; details: Homo sapiens;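 note: BJ fibroblasts immortalized with TERT plus LT and ST oncogenes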
[12] = DRD fibroblast viability loss – cell-based, non-viral oncogenic, luminescence, dose response (AID 1934); type: functional; details: Homo sapiens
CHO-K1 = assay: (§1) Counterscreen for antagonists of the orexin 1 receptor (OX1R; HCRTR1): Homogeneous time resolved fluorescence (HTRF)-based cell-based dose response assay to identify antagonists of the parental CHO-K1 cell line. [Related pubchem assays (depositor defined):AID434989, AID435008, AID463079, AID485270, AID492963, AID492964, AID492965, AID493232, AID504699, AID504701]; type: functional; details: Cricetulus griseus
Jurkat = assay: blockers of NF-kB activation in T cells – Jurkat, luciferase reporter, luminescence, B- and T-cell, dose response (AID 489004); type: functional, cell-based; details: Homo sapiens;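 note: NF-kB luciferase reporter Jurkat cells stimulated with PMA plus ionomycin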
[13] = as §1, with “Fluorescence-based” for “Homogeneous time resolved fluorescence (HTRF)-based”, “cell-based high throughput” for “cell-based”, “CHO” for “CHO-K1”; type: functional
[14] = HEK-293T viability loss, compound-treated – cell-based, uHTS hits, cytotoxicity control for B/T-cell NF-kB inhibitor project, dose response (AID 489019); type: functional;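 note: IC50 reflects cytotoxicity as loss of cell viability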
[15] = target: T3, Orexin/Hypocretin receptor type 1 (Homo sapiens, UniProt O43613); assay: Homogeneous Time Resolved Fluorescence (HTRF)-based cell-based high throughput dose response assay for antagonists of the orexin 1 receptor (OX1R; HCRTR1). [Related pubchem assays (depositor defined):AID434989, AID435008, AID463079, AID485270, AID492963, AID492964, AID492965, AID493232, AID504717, AID504718]; type: functional
T3 sequence (O43613 whole entry): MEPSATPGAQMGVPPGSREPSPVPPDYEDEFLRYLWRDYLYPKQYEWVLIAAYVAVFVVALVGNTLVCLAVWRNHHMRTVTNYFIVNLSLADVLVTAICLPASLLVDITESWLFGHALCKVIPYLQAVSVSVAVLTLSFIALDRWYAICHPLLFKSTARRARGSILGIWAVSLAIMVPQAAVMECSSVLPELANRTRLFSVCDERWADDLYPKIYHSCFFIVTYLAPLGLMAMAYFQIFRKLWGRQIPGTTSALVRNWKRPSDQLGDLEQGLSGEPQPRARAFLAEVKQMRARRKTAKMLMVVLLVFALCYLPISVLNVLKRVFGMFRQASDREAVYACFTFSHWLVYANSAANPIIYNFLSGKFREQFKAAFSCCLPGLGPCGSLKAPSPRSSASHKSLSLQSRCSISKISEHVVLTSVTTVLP

[16] = target: T3, Orexin/Hypocretin receptor type 1; assay: Fluorescence-based cell-based high throughput dose response assay for antagonists of the orexin 1 receptor (OX1R; HCRTR1). [Related pubchem assays (depositor defined):AID434989, AID435008, AID463079, AID485270, AID492963, AID492964, AID492965, AID493232, AID504717, AID504718]; type: functional
Orexin receptor type 2 [17] = target: T4, Orexin receptor type 2 (Homo sapiens, UniProt O43614); assay: Counterscreen assay for antagonists of the orexin 1 receptor (OX1R; HCRTR1): Fluorescence-based cell-based dose response assay for antagonists of the orexin 2 receptor (OX2R; HCRTR2), run by assay provider.; type: functional
T4 sequence (O43614 whole entry): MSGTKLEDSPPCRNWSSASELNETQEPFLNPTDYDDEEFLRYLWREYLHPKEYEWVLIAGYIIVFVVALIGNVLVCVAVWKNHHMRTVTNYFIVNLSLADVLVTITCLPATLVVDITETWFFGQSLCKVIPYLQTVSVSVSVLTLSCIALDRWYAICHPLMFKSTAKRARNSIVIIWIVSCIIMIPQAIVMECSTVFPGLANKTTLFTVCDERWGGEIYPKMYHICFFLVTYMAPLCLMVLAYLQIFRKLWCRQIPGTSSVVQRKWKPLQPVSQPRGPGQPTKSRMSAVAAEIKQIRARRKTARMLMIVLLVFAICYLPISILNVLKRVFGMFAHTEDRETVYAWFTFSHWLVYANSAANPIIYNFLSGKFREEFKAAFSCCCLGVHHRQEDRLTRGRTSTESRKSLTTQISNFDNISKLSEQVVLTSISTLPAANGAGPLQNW

Orexin receptor type 2 [18] = target: T4, Orexin receptor type 2; assay: Counterscreen assay for antagonists of the orexin 1 receptor (OX1R; HCRTR1): Homogeneous Time Resolved Fluorescence (HTRF)-based cell-based dose response assay for antagonists of the orexin 2 receptor (OX2R; HCRTR2), run by assay provider.; type: functional
[19] = target: Peroxisome proliferator-activated receptor gamma/Nuclear receptor coactivator 1 (Homo sapiens, UniProt P37231); assay: (§2) TR-FRET dose response biochemical High Throughput Screening assay for agonists of the steroid receptor coactivator 1 (SRC-1) recruitment by the peroxisome proliferator-activated receptor gamma (PPAR gamma): non-selective agonists. [Related pubchem assays (depositor defined):AID1300, AID1808, AID504735, AID631]; type: protein assay
[20] = target: Peroxisome proliferator-activated receptor gamma/Nuclear receptor coactivator 3 (Homo sapiens, UniProt P37231); assay: as §2, with “3 (SRC-3)” for “1 (SRC-1)”, “assays: 1301 (Confirmation screen.), 1048 (Primary screen.)]” for “assays (depositor defined):AID1300, AID1808, AID504735, AID631]”; type: functional
[21] = target: Peroxisome proliferator-activated receptor gamma/Nuclear receptor coactivator 2 (Homo sapiens, UniProt P37231); assay: TR-FRET dose response biochemical High Throughput Screening assay for agonists of the steroid receptor coactivator 2 (SRC-2) recruitment by the peroxisome proliferator-activated receptor gamma (PPAR gamma): non-selective agonists. [Related pubchem assays: 1297, 1032 ]; type: functional
Vero = assay: cells; type: functional, cell-based; details: Chlorocebus sabaeus

Cytochrome P450 2C19, sequence (P33261 whole entry): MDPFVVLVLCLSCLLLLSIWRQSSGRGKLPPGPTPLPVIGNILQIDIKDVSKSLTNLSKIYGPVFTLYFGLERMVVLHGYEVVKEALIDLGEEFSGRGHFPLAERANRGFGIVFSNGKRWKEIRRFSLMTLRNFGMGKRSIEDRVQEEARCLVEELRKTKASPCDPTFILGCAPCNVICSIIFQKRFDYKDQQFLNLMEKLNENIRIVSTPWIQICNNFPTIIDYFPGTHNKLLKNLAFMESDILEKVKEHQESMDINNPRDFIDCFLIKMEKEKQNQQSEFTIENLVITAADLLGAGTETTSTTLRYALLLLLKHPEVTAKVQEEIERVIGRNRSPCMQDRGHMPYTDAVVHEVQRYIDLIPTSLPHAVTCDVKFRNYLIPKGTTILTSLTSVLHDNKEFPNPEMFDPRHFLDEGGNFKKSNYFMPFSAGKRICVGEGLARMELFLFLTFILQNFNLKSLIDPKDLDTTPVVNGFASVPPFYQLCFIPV
Mu-type opioid receptor, sequence (P35372 whole entry): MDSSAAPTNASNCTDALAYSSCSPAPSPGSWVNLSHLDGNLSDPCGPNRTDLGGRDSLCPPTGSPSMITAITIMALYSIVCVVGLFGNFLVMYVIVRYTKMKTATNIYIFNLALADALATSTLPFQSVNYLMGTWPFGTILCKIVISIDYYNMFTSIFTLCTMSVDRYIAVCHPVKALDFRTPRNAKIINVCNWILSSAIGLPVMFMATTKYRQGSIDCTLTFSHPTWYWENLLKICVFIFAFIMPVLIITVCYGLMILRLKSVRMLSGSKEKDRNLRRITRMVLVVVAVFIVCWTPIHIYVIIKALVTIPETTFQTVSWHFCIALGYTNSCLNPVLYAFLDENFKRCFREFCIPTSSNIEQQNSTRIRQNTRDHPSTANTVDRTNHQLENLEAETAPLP
5-hydroxytryptamine receptor 5A, sequence (P47898 whole entry): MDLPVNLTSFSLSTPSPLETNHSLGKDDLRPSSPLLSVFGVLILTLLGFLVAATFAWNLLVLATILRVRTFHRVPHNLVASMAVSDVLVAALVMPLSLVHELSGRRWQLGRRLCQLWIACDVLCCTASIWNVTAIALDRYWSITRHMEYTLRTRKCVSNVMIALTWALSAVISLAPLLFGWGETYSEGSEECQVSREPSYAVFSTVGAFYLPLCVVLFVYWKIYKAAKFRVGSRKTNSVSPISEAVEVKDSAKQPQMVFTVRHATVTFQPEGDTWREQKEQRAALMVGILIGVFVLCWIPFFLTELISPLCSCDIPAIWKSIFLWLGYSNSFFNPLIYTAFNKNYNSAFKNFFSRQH
Cytochrome P450 2D6, sequence (P10635 whole entry): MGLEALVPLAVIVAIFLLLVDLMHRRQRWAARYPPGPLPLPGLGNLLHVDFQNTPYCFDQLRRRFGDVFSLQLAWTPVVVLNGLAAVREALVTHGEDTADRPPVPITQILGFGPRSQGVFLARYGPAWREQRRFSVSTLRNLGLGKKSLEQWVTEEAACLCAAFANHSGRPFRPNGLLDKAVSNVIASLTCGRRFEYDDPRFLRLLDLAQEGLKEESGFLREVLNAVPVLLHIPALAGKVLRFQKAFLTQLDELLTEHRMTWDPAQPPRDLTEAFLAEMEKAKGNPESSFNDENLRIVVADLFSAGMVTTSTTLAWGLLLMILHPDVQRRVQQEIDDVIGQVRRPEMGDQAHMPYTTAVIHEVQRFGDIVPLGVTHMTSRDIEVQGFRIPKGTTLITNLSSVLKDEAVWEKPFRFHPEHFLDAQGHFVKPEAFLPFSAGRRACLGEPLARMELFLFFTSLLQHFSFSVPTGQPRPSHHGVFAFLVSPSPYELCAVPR
Peroxisome proliferator-activated receptor gamma/Nuclear receptor coactivator 3, sequence (P37231 whole entry): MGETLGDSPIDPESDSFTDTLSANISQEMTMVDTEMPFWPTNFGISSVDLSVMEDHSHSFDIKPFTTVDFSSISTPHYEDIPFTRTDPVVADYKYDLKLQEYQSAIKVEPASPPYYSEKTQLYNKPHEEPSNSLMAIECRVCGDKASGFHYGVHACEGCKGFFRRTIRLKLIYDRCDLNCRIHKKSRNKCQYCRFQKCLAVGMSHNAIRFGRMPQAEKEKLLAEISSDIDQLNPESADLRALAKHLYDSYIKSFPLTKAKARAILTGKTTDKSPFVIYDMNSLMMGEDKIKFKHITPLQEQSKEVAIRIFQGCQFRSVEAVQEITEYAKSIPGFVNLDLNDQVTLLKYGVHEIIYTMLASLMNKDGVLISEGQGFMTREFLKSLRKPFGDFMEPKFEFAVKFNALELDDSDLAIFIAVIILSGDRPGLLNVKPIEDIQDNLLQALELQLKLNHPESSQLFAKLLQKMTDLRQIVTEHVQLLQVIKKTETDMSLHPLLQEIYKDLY
Peroxisome proliferator-activated receptor gamma/Nuclear receptor coactivator 3, sequence (Q9Y6Q9 whole entry, further chain): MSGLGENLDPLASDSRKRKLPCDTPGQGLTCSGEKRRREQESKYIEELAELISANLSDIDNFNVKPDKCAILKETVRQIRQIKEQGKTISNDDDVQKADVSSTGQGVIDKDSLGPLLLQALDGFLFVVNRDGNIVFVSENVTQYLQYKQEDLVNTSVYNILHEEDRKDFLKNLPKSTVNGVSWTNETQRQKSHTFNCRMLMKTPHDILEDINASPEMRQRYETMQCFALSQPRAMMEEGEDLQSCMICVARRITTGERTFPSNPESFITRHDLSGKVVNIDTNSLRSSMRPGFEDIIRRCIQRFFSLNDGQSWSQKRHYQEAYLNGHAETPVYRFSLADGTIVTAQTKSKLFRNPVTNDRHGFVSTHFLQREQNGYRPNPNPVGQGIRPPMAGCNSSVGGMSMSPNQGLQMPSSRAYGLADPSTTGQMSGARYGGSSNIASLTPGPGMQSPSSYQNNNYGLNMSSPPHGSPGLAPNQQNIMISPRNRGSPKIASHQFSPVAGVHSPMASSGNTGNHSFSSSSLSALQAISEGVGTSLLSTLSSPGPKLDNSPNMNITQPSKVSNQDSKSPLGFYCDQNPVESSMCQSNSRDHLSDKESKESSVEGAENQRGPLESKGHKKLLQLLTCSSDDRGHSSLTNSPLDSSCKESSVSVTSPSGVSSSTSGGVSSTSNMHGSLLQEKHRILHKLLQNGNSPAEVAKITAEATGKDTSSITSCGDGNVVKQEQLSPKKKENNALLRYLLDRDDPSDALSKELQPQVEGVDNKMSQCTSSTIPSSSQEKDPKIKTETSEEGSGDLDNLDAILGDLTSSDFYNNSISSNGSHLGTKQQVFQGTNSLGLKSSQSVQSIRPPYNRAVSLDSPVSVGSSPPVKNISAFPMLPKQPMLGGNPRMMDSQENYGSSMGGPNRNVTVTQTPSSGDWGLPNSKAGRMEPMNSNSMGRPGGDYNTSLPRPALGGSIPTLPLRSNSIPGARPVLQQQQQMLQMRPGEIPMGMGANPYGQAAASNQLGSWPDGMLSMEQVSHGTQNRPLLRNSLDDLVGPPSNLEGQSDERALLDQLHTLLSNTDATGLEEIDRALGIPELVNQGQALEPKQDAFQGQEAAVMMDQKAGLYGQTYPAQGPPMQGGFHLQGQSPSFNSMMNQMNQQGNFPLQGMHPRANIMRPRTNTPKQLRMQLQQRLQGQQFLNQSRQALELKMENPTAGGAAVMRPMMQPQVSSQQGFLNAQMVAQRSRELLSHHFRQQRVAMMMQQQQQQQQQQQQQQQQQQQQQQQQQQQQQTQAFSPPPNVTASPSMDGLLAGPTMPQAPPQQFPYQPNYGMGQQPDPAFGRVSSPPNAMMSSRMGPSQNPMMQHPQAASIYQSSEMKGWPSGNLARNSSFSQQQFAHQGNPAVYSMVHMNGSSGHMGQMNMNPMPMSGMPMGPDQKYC
Delta-type opioid receptor, sequence (P41143 whole entry): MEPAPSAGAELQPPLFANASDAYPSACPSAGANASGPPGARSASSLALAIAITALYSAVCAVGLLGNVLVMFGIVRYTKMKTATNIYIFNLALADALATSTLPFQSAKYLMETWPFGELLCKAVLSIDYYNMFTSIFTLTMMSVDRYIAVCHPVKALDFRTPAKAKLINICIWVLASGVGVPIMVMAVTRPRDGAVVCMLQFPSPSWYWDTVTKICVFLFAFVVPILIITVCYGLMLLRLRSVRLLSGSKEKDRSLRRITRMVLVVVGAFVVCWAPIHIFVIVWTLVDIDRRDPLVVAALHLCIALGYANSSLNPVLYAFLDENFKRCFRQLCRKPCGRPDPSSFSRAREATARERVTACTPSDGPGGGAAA
Cytochrome P450 2C9, sequence (P11712 whole entry): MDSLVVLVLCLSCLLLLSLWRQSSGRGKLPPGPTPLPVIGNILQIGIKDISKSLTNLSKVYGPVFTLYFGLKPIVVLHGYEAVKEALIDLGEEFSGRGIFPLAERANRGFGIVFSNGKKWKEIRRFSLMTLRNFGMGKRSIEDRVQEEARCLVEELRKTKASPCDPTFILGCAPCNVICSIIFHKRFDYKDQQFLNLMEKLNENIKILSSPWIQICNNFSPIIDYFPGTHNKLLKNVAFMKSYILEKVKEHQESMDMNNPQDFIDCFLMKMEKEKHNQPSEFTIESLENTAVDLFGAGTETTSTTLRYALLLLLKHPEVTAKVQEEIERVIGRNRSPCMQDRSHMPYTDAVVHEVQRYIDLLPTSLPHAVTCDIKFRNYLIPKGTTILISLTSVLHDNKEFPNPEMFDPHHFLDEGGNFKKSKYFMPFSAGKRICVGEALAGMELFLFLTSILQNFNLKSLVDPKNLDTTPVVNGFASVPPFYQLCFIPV

## COc1ccc2c(c1)C=C(CN1CCC(CO)(CCc3ccccc3)CC1)CO2
[1]
  EC50: 2.11 µM (active)
[2]
  EC50: 67.7 µM (inactive)
Mu-type opioid receptor
  EC50: 85.9 µM (inactive)
[3]
  EC50: > 92.5 µM (inactive)

## O=C(Nc1nc2ccc(F)cc2s1)C1CCCO1 (stereo not given)
Cytochrome P450 2C19
  AC50: 25.1 µM (inconclusive)
Cytochrome P450 2C9
  AC50: 39.8 µM (inconclusive)
Cytochrome P450 2D6
  AC50: inconclusive

## CC(C)C1CC(CCNCc2ccc(N(C)C)cc2)(c2ccccc2)CCO1 (stereo not given)
[4]
  CC50: 33.3 µM (active)
[5]
  EC50: 6.68 µM (active)
[6]
  AC50: 11.1 µM (active)
A-375
  AC50: 20.7 µM (active)

## O=C(NCc1ccccc1)c1ccc(CS(=O)(=O)c2ccccc2)o1
Escherichia coli [7]
  AC50: 28.6 µM (active)

## CC(C)(C)OC(=O)N1CCCC(C(=O)Nc2cccc(C(=O)NCCc3ccccc3)c2)C1 (stereo not given)
Escherichia coli [7]
  AC50: 21.1 µM (active)
Escherichia coli [8]
  AC50: 322 µM (active)

## Cc1nn(-c2ccccc2)c(C)c1/C=N/NC(=O)c1cc(-c2cccs2)[nH]n1
BJ [9]
  EC50: 0.66 µM (inconclusive)
BJ [10]
  EC50: 0.79 µM (active)
BJ [11]
  EC50: 0.601 µM (inconclusive)
[12]
  EC50: 0.644 µM (inconclusive)
CHO-K1
  IC50: > 66.2 µM (inactive)
Jurkat
  IC50: 10.3 µM (active)
[13]
  IC50: > 49.7 µM (inactive)
[14]
  IC50: 9.45 µM (active)
[15]
  IC50: 2.99 µM (active)
[16]
  IC50: 3.99 µM (active)
Orexin receptor type 2 [17]
  IC50: 37 µM (inactive)
Orexin receptor type 2 [18]
  IC50: > 50 µM (inactive)

## Sc1nnc(-c2ccccn2)n1/N=C/c1ccc(-c2ccccc2Br)o1
[19]
  EC50: 2.75 µM (active)
[20]
  EC50: > 79.4 µM (not active)
[21]
  EC50: 2.83 µM (active)
Vero
  IC50: 23.4 µM (active)
